Assay results: patent publication US20030153603A1, “Agent for enhancing accumulation of drugs in tumor tissues” (Toray Industries, Inc., priority 1999, published 2003)

Experiments:
Type in all cases: in vivo, Donryu rats
tumor tissue [1] = assay: Change in blood flow in various tissues after 0.2, 2 or 20 μg beraprost sodium (Doppler type blood flowmeter); conditions: 0.2, 2 or 20 μg injected
Description: A 136B cells were transplanted to dorsa of feet of Donryu rats to form solid tumors. To each of the tumor-bearing rats, 0.5 mL of solution of Evans Blue (1.5%) in physiological saline was administered i.v. and then 2 μg of beraprost sodium was injected into common iliac artery which is the tumor-controlling artery. The blood vessel perneability-increasing effect was evaluated by comparing the amounts of the accumulated Evans Blue-albumin complex in the tissue, which is the index of the blood vessel permeability in the tumor tissue, of the beraprost sodium-administered group and of the non-administered group. As a result, it was observed that by administration of 2 μg of beraprost sodium, the blood vessel permeability was increased to about 3.4 times that of the non-administered group (P<0.01). The amount of the accumulated Evans Blue was spectrophotometrically quantified after extraction with formamide at 30° C. for 48 hours. Into common iliac artery which is the tumor-controlling artery of the tumor on the dorsum of foot of each of the tumor-bearing rats prepared in the same manner as in Examples 1 to 3, 0.2, 2, or 20 μg of beraprost sodium was arterially injected and the change in the blood flow was measured by a Doppler type blood flowmeter. […]

tumor tissue [2] = assay: Change in blood flow in various tissues by continuous arterial injection (Doppler type blood flowmeter)
Description: A 136B cells were transplanted to dorsa of feet of Donryu rats to form solid tumors. To each of the tumor-bearing rats, 0.5 mL of solution of Evans Blue (1.5%) in physiological saline was administered i.v. and then 2 μg of beraprost sodium was injected into common iliac artery which is the tumor-controlling artery. The blood vessel perneability-increasing effect was evaluated by comparing the amounts of the accumulated Evans Blue-albumin complex in the tissue, which is the index of the blood vessel permeability in the tumor tissue, of the beraprost sodium-administered group and of the non-administered group. As a result, it was observed that by administration of 2 μg of beraprost sodium, the blood vessel permeability was increased to about 3.4 times that of the non-administered group (P<0.01). The amount of the accumulated Evans Blue was spectrophotometrically quantified after extraction with formamide at 30° C. for 48 hours. Into common iliac artery which is the tumor-controlling artery of the tumor on the dorsum of foot of each of the tumor-bearing rats prepared in the same manner as in Examples 1 and 2, 0.3 mL of beraprost sodium solution (30 μg/mL) in middle-length fatty acid was arterially injected continuously for 1 minute. The changes in the blood flow in various tissues were measured by a Doppler type blood flowmeter. The rate of change was expressed in terms of % of the average during 10 minutes after the beginning of the arterial injection based on the average during several minutes before the arterial injection. […] This was the phenomenon brought about by the specific relaxation of the blood vessels in the tumor tissues.

tumor tissue [3] = assay: Permeability of Evans Blue in various tissues, beraprost sodium intravenously administered vs not administered; conditions: 20 μg injected into the tail vein; tumor-bearing rats; P<0.05
Description: A 136B cells were transplanted to dorsa of feet of Donryu rats to form solid tumors. To each of the tumor-bearing rats, 0.5 mL of solution of Evans Blue (1.5%) in physiological saline was administered i.v. and then 2 μg of beraprost sodium was injected into common iliac artery which is the tumor-controlling artery. The blood vessel perneability-increasing effect was evaluated by comparing the amounts of the accumulated Evans Blue-albumin complex in the tissue, which is the index of the blood vessel permeability in the tumor tissue, of the beraprost sodium-administered group and of the non-administered group. As a result, it was observed that by administration of 2 μg of beraprost sodium, the blood vessel permeability was increased to about 3.4 times that of the non-administered group (P<0.01). The amount of the accumulated Evans Blue was spectrophotometrically quantified after extraction with formamide at 30° C. for 48 hours. […] The blood vessel permeability-increasing effect was evaluated by comparing the amounts of the accumulated Evans Blue-albumin complex in the tissues of the beraprost sodium-administered group and of the non-administered group. […] The amount of the accumulated Evans Blue was quantified in the same manner as in Example 1.

tumor tissue [4] = assay: Permeability of Evans Blue in tumor tissue, beraprost sodium arterially administered vs not administered; conditions: 2 μg injected into common iliac artery; A 136B solid tumor on dorsum of foot; P<0.01
Description: A 136B cells were transplanted to dorsa of feet of Donryu rats to form solid tumors. To each of the tumor-bearing rats, 0.5 mL of solution of Evans Blue (1.5%) in physiological saline was administered i.v. and then 2 μg of beraprost sodium was injected into common iliac artery which is the tumor-controlling artery. The blood vessel perneability-increasing effect was evaluated by comparing the amounts of the accumulated Evans Blue-albumin complex in the tissue, which is the index of the blood vessel permeability in the tumor tissue, of the beraprost sodium-administered group and of the non-administered group. As a result, it was observed that by administration of 2 μg of beraprost sodium, the blood vessel permeability was increased to about 3.4 times that of the non-administered group (P<0.01). The amount of the accumulated Evans Blue was spectrophotometrically quantified after extraction with formamide at 30° C. for 48 hours.

## CC#CCC(C)[C@H](O)/C=C/C1[C@H](O)C[C@@H]2Oc3c(CCCC(=O)O)cccc3[C@H]12 (stereo partly shown) [beraprost sodium]
Tumor tissue [1]
  decrease in the blood flow in normal tissue organs such as liver and kidney: not observed
Tumor tissue [1]; average during 10 minutes after start vs before
  blood flow in the tumor: Sharp decrease
Tumor tissue [2]; continuous arterial injection at 10 μg/kg/min, P<0.05
  blood flow in the tumor compared with kidney: significantly more decreased than in kidney
Tumor tissue [2]; continuous arterial injection at 17 μg/kg/min, tumor vs. liver P<0.05, tumor vs. kidney P<0.01
  blood flow in the tumor compared with kidney and liver: significantly more decreased than in kidney and in liver
Tumor tissue [2]; continuous arterial injection for 1 minute into common iliac artery, average during 10 minutes after start vs before
  blood flow in the tumor tissue: sharply decreased dose-dependently
Tumor tissue [3]
  blood vessel permeability (accumulated Evans Blue-albumin complex in the tissues): about 1.5 times that of the non-administered group
Tumor tissue [4]
  blood vessel permeability (accumulated Evans Blue-albumin complex in tumor tissue): about 3.4 times that of the non-administered group
